Experimental data: patent US4755514A, “Phenylpyrazine derivatives and thrombolytic agent” (Suntory Limited, priority 1985, dated 1988)

Experiments:
[1] = test system: pulmonary embolism induced by adenosine-5'-diphosphate sodium salt (ADP 2Na); test: prevention of pulmonary embolic death in mice (ADP 2Na injection); format: in vivo, Male ddY mice; conditions: 300 mg/kg peroral; for Number of animals dying within 3 minutes after injection/Number of animals in test, ADP 2Na: 3 h before 30 mg/kg ADP 2Na i.v., control: 6/6 died; for thrombolytic effects compared with Ticlopidine: from Table 1 (ADP 2Na and collagen), mice
[2] = test system: pulmonary embolism induced by collagen; test: prevention of pulmonary embolic death in mice (collagen injection); format: in vivo, Male ddY mice; conditions: 300 mg/kg peroral, 3 h before collagen i.v.; control: 6/6 died
Protocol: The following tests were conducted to evaluate the effect of the claimed compounds in the prevention of pulmonary embolic death in mice.
Each of the compounds being tested was suspended in 0.5% carboxymethyl cellulose and administered perorally at a dosage of 300 mg/kg (0.1 ml/10 g body weight).
Male ddY mice weighing 18-20 g were subjected to the test after being starved overnight.
Three hours after oral administration of a selected test compound to the mice, 30 mg/kg of adenosine-5'-diphosphate sodium salt (Sigma Chemical Co., Grade IX) or collagen was injected through their tail veins. The number of mice which died of pulmonary embolism within 3 minutes after the intravenous injections was counted.
The adenosine-5'-diphosphate sodium salt (ADP 2Na) was in the form of a solution in physiological saline at a concentration of 300 mg/10 ml. The collagen was administered in the form of a solution which was prepared by the following procedure: 25 mg of collagen was uniformly sonicated in a solution containing 25 mmol of tris-HCl and 130 mmol of sodium chloride (pH: 7.3), and the resultant dispersion was incubated at 37° C. for 45 minutes to form a polymer (after incubation, the collagen solution was kept in ice-water until it was used).
As a control, 0.5% carboxymethyl cellulose (10 ml/kg) was administered through tail veins.

mice = test system: mice; design: species or system ddY male mice; conditions: mouse, in vivo
Protocol: The following acute toxicity test was conducted on mice:
Animal: Five-week old ddY male mice (wt: 21-27 g) in groups of 6.
Method: The mice were starved overnight and the compound prepared in Example 6 was administered perorally in an amount of 0.1 ml/10 g body weight after it was suspended in 0.5% carboxymethyl cellulose sodium salt (CMC-Na). As a control, 0.5% CMC-Na solution was administered.

| SMILES | Number of animals dying within 3 minutes after injection/Number of animals in test, ADP 2Na [1] | thrombolytic effects compared with Ticlopidine [1] | Number of animals dying within 3 minutes after injection/Number of animals in test, Collagen [2] | animals that died at the dosage levels used (mice) | changes in the general condition of the mice (mice) |
| --- | --- | --- | --- | --- | --- |
| Clc1ccc(-c2cnccn2)cc1 [Example 1, 2-(4-chlorophenyl)pyrazine] | 4/9 | equal to or greater than the levels achieved by a known thrombolytic agent, Ticlopidine | 2/8 | – | – |
| Clc1ccc(-c2cnccn2)c(Cl)c1 [Example 5, 2-(2,4-dichlorophenyl)pyrazine] | 6/10 | – | 4/10 | – | – |
| Clc1ccc(-c2cnccn2)cc1Cl [Example 6, 2-(3,4-dichlorophenyl)pyrazine] | 3/10 | equal to or greater than the levels achieved by a known thrombolytic agent, Ticlopidine | 4/10 | none of the animals treated with the compound of Example 6 died | No apparent changes were observed |
| Clc1cccc(-c2cnccn2)c1 [Example 4, 2-(3-chlorophenyl)pyrazine] | 5/10 | – | 6/10 | – | – |
| Clc1ccccc1-c1cnccn1 [Example 7, 2-(2-chlorophenyl)pyrazine] | 5/10 | – | 6/9 | – | – |
| Oc1ccc(-c2cnccn2)cc1 [Example 8, 2-(4-hydroxyphenyl)pyrazine] | 4/7 | – | 7/8 | – | – |
| Cc1ccc(-c2cnccn2)cc1 [Example 2, 2-(4-methylphenyl)pyrazine] | 3/7 | – | 7/8 | – | – |
| COc1ccc(-c2cnccn2)cc1 [Example 3, 2-(4-methoxyphenyl)pyrazine] | 4/7 | – | 6/8 | – | – |
